The assay concerns the target T1, Androgen Receptor (Homo sapiens, UniProt P10275).
T1 construct: endogenous in cells; host or cells: VCaP cells
T1 sequence (P10275 1-920): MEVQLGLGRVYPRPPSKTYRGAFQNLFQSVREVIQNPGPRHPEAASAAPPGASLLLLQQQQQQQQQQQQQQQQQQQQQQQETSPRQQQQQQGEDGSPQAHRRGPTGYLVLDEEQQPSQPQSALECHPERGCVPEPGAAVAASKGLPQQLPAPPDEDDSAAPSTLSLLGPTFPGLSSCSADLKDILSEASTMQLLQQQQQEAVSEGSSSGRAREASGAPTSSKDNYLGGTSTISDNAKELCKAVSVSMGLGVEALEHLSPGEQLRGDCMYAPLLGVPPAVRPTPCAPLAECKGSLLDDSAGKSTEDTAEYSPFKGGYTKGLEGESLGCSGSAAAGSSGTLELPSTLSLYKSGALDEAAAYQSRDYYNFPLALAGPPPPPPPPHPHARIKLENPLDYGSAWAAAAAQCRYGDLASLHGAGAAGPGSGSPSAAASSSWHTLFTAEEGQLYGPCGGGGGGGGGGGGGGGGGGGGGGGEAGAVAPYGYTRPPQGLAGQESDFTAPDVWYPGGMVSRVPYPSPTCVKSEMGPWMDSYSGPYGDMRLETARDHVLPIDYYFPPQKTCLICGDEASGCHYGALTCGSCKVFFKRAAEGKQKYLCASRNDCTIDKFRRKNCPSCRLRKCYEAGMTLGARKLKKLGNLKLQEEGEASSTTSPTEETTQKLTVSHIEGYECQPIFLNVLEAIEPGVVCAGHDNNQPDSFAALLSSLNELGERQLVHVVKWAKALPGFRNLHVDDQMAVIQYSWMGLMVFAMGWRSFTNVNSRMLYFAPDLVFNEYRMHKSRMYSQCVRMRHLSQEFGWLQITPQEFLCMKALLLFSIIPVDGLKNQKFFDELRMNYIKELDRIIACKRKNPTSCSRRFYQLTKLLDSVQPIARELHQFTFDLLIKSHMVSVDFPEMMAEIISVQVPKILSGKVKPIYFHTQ
The assay is described as follows: Androgen Receptor ELISA assay (PathScan AR ELISA) in VCaP cells: AR degradation, Dmax and DC50. Format: cell-based. The gist of the method: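 VCaP cells in phenol red-free RPMI with 5% charcoal-stripped FBS were grown at least 3 days, then given compound as 7 half-log doses in 0.1% DMSO with 0.1 nM R1881 for 24 h. Lysates went into a sandwich AR ELISA with TMB read at 450 nm.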

[1] abbreviates: VCaP cells; Table 36; read-out: VCaP DC50.
The mark [2] stands for this setting: VCaP, VCaP cells; Table 36; read-out: VCaP Dmax (%).

Read-outs that look alike come from different tables or passages of the source.

Turning to `Cc1ncsc1-c1ccc([C@H](CO)NC(=O)[C@@H]2C[C@@H](O)CN2C(=O)[C@@H](NC(=O)COCCN2CCN(c3ccc(C(=O)N[C@H]4C(C)(C)[C@H](Oc5ccc(C#N)c(Cl)c5)C4(C)C)cn3)CC2)C(C)(C)C)cc1` [Example 812, N-((1r,3r)-3-(3-chloro-4-cyanophenoxy)-2,2,4,4-tetramethylcyclobutyl)-6-(4-(2-(2-(((S)-1-((2S, 4R)-4-hydroxy-2-(((R)-2-hydroxy-1-(4-(4-methylthiazol-5-yl)phenyl)ethyl)carbamoyl)pyrrolidin-1-yl)-3,3-dimethyl-1-oxobutan-2-yl)amino)-2-oxoethoxy)ethyl)piperazin-1-yl) nicotinamide], the DC50 under setting [1] is less than 0.05 µM. Also, the Dmax under setting [2] is greater than 71%.
In the case of `Cc1ncsc1-c1ccc([C@H](C)NC(=O)C2C[C@@H](O)CN2C(=O)[C@@H](NC(=O)COCCN2C[C@@H](C)N(c3ccc(C(=O)N[C@H]4C(C)(C)[C@H](Oc5ccc(C#N)c(Cl)c5)C4(C)C)cn3)[C@@H](C)C2)C(C)(C)C)cc1` (stereo partly drawn) [Example 813, N-((1r,3R)-3-(3-chloro-4-cyanophenoxy)-2,2,4,4-tetramethylcyclobutyl)-6-((2S,6R)-4-(2-(2-(((2S)-1-((4R)-4-hydroxy-2-(((S)-1-(4-(4-methylthiazol-5-yl)phenyl)ethyl)carbamoyl)pyrrolidin-1-yl)-3,3-dimethyl-1-oxobutan-2-yl)amino)-2-oxoethoxy)ethyl)-2,6-dimethylpiperazin-1-yl)nicotinamide], the DC50 under setting [1] is less than 0.05 µM. The Dmax under setting [2] is greater than 71%.
For `Cc1ncsc1-c1ccc([C@H](C)NC(=O)C2C[C@@H](O)CN2C(=O)C(NC(=O)CN2CC3(CC(N4CCN(c5ccc(C(=O)NC6C(C)(C)C(Oc7ccc(C#N)c(Cl)c7)C6(C)C)cn5)CC4)C3)C2)C(C)(C)C)cc1` (stereo partly drawn) [Example 814, N-((1r,3r)-3-(3-chloro-4-cyanophenoxy)-2,2,4,4-tetramethylcyclobutyl)-6-(4-(2-(2-(((S)-1-((2S, 4R)-4-hydroxy-2-(((S)-1-(4-(4-methylthiazol-5-yl)phenyl)ethyl)carbamoyl)pyrrolidin-1-yl)-3,3-dimethyl-1-oxobutan-2-yl)amino)-2-oxoethyl)-2-azaspiro [3.3]heptan-6-yl)piperazin-1-yl) nicotinamide], in that order: less than 0.05 µM and 26 to 50%.
With `Cc1ncsc1-c1ccc([C@H](C)NC(=O)C2C[C@@H](O)CN2C(=O)C(NC(=O)COC(C)(C)CN2CCN(c3ccc(C(=O)NC4C(C)(C)C(Oc5ccc(C#N)c(Cl)c5)C4(C)C)cn3)CC2)C(C)(C)C)cc1` (stereo partly drawn) [Example 815, N-((1r,3r)-3-(3-chloro-4-cyanophenoxy)-2,2,4,4-tetramethylcyclobutyl)-6-(4-(2-(2-(((S)-1-((2S, 4R)-4-hydroxy-2-(((S)-1-(4-(4-methylthiazol-5-yl)phenyl)ethyl)carbamoyl)pyrrolidin-1-yl)-3,3-dimethyl-1-oxobutan-2-yl)amino)-2-oxoethoxy)-2-methylpropyl)piperazin-1-yl) nicotinamide], the DC50 under setting [1] was less than 0.05 µM. For the same compound, under setting [2], the Dmax is 51 to 70%.
For the compound `Cc1ncsc1-c1ccc([C@H](C)NC(=O)[C@@H]2C[C@@H](O)CN2C(=O)[C@@H](NC(=O)CN2C[C@H](C)N(CCCc3ccc(C(=O)N[C@H]4C(C)(C)[C@H](Oc5ccc(C#N)c(Cl)c5)C4(C)C)cc3)C[C@H]2C)C(C)(C)C)cc1` [Example 816, (2S,4R)-1-((S)-2-(2-((2R,5S)-4-(3-(4-(((1r, 3S)-3-(3-chloro-4-cyanophenoxy)-2,2,4,4-tetramethylcyclobutyl)carbamoyl)phenyl)propyl)-2,5-dimethylpiperazin-1-yl)acetamido)-3,3-dimethylbutanoyl)-4-hydroxy-N-((S)-1-(4-(4-methylthiazol-5-yl)phenyl)ethyl) pyrrolidine-2-carboxamide], the DC50 under setting [1] was less than 0.05 µM. Also, for the setting “VCaP, read-out: VCaP Dmax (%)”, the Dmax was greater than 71%.
As for `Cc1ncsc1-c1ccc([C@H](C)NC(=O)[C@@H]2C[C@@H](O)CN2C(=O)[C@@H](NC(=O)CN2C[C@@H](C)N(CCCc3ccc(C(=O)N[C@H]4C(C)(C)[C@H](Oc5ccc(C#N)c(Cl)c5)C4(C)C)cc3)C[C@@H]2C)C(C)(C)C)cc1` [Example 817, (2S,4R)-1-((S)-2-(2-((2S,5R)-4-(3-(4-(((1r, 3R)-3-(3-chloro-4-cyanophenoxy)-2,2,4,4-tetramethylcyclobutyl)carbamoyl)phenyl)propyl)-2,5-dimethylpiperazin-1-yl)acetamido)-3,3-dimethylbutanoyl)-4-hydroxy-N-((S)-1-(4-(4-methylthiazol-5-yl)phenyl)ethyl) pyrrolidine-2-carboxamide], the DC50 under setting [1] is less than 0.05 µM. Also, under “VCaP, read-out: VCaP Dmax (%)”, the maximal degradation (Dmax) was greater than 71%.
Regarding `Cc1ncsc1-c1ccc([C@H](C)NC(=O)[C@@H]2C[C@@H](O)CN2C(=O)[C@H](c2cc(CCCN3CCN(c4ccc(C(=O)N[C@H]5C(C)(C)[C@H](Oc6ccc(C#N)c(Cl)c6)C5(C)C)cn4)CC3)no2)C(C)C)cc1` [Example 818, N-((1r,3r)-3-(3-chloro-4-cyanophenoxy)-2,2,4,4-tetramethylcyclobutyl)-6-(4-(3-(5-((S)-1-((2S, 4R)-4-hydroxy-2-(((S)-1-(4-(4-methylthiazol-5-yl)phenyl)ethyl)carbamoyl)pyrrolidin-1-yl)-3-methyl-1-oxobutan-2-yl)isoxazol-3-yl)propyl)piperazin-1-yl) nicotinamide], the DC50 under setting [1] is greater than 0.501 µM. Further, the Dmax under setting [2] is less than 25%.
On to `Cc1ncsc1-c1ccc([C@H](C)NC(=O)[C@@H]2C[C@@H](O)CN2C(=O)[C@@H](c2cc(CCCN3CCN(c4ccc(C(=O)N[C@H]5C(C)(C)[C@H](Oc6ccc(C#N)c(Cl)c6)C5(C)C)cn4)CC3)no2)C(C)C)cc1` [Example 819, N-((1r,3r)-3-(3-chloro-4-cyanophenoxy)-2,2,4,4-tetramethylcyclobutyl)-6-(4-(3-(5-((R)-1-((2S, 4R)-4-hydroxy-2-(((S)-1-(4-(4-methylthiazol-5-yl)phenyl)ethyl)carbamoyl)pyrrolidin-1-yl)-3-methyl-1-oxobutan-2-yl)isoxazol-3-yl)propyl)piperazin-1-yl) nicotinamide], for which the DC50 under setting [1] was less than 0.05 µM. Under setting [2], the Dmax was greater than 71%.
For `Cc1ncsc1-c1ccc([C@H](CO)NC(=O)[C@@H]2C[C@@H](O)CN2C(=O)[C@@H](NC(=O)CN2CCN(CCCc3ccc(C(=O)N[C@H]4C(C)(C)[C@H](Oc5ccc(C#N)c(Cl)c5)C4(C)C)cc3)CC2)C(C)(C)C)cc1` [Example 820, (2S,4R)-1-((S)-2-(2-(4-(3-(4-(((1r,3r)-3-(3-chloro-4-cyanophenoxy)-2,2,4,4-tetramethylcyclobutyl)carbamoyl)phenyl)propyl)piperazin-1-yl)acetamido)-3,3-dimethylbutanoyl)-4-hydroxy-N-((R)-2-hydroxy-1-(4-(4-methylthiazol-5-yl)phenyl)ethyl) pyrrolidine-2-carboxamide], in that order: less than 0.05 µM and greater than 71%.
For the compound `Cc1ncsc1-c1ccc([C@H](CO)NC(=O)[C@@H]2C[C@@H](O)CN2C(=O)[C@@H](NC(=O)COCCN2C3CCC2CN(c2ccc(C(=O)N[C@H]4C(C)(C)[C@H](Oc5ccc(C#N)c(Cl)c5)C4(C)C)cn2)C3)C(C)(C)C)cc1` [Example 821, N-((1r,3r)-3-(3-chloro-4-cyanophenoxy)-2,2,4,4-tetramethylcyclobutyl)-6-(8-(2-(2-(((S)-1-((2S, 4R)-4-hydroxy-2-(((R)-2-hydroxy-1-(4-(4-methylthiazol-5-yl)phenyl)ethyl)carbamoyl)pyrrolidin-1-yl)-3,3-dimethyl-1-oxobutan-2-yl)amino)-2-oxoethoxy)ethyl)-3,8-diazabicyclo [3.2.1]octan-3-yl) nicotinamide], under “VCaP, read-out: VCaP Dmax (%)”, the Dmax was greater than 71%. The half-maximal degradation concentration (DC50) (read-out: VCaP DC50; VCaP cells; Table 36) is less than 0.05 µM.
`Cc1ncsc1-c1ccc([C@H](CO)NC(=O)C2C[C@@H](O)CN2C(=O)[C@@H](NC(=O)COCCN2CCCN(c3ccc(C(=O)NC4C(C)(C)C(Oc5ccc(C#N)c(Cl)c5)C4(C)C)cn3)CC2)C(C)(C)C)cc1` (stereo partly drawn) [Example 822, N-((1r,3r)-3-(3-chloro-4-cyanophenoxy)-2,2,4,4-tetramethylcyclobutyl)-6-(4-(2-(2-(((S)-1-((2S, 4R)-4-hydroxy-2-(((R)-2-hydroxy-1-(4-(4-methylthiazol-5-yl)phenyl)ethyl)carbamoyl)pyrrolidin-1-yl)-3,3-dimethyl-1-oxobutan-2-yl)amino)-2-oxoethoxy)ethyl)-1,4-diazepan-1-yl) nicotinamide]: the DC50 under setting [1] is less than 0.05 µM. Further, the Dmax under setting [2] was greater than 71%.

The term DC50 denotes the concentration at which degradation of the target reaches its halfway point. For orientation: Dmax means the greatest extent of degradation seen.

These data come from patent US11427548B2 (Arvinas Operations, Inc., priority 2015, dated 2022).
